Experimental data reported in ChEMBL document CHEMBL4118093, “Identification of a Hit Series of Antileishmanial Compounds through the Use of Mixture-Based Libraries” (ACS Med Chem Lett, 2017).

Tests used:
[1] = tested on: J774; experiment: Cytotoxicity against mouse J774 cells
[2] = Selectivity index, ratio of IC50 for mouse J774 cells to IC50 for Leishmania donovani axenic amastigotes infected in mouse J774 cells; format: toxicity, cell-based; details: read-out: Ratio IC50
[3] = tested on: Leishmania donovani; experiment: Antileishmanial activity against Leishmania donovani axenic amastigotes infected in mouse J774 cells measured after 72 hrs by Draq5 staining based high content screening assay; format: functional, organism-based; details: J774, 72 h
[4] = tested on: Leishmania donovani; experiment: Antileishmanial activity against Leishmania donovani axenic amastigotes at 2.5 uM after 72 hrs by Celltiter reagent based assay relative to control; format: functional
[5] = tested on: Leishmania donovani; experiment: Antileishmanial activity against Leishmania donovani axenic amastigotes at 5 uM after 72 hrs by Celltiter reagent based assay relative to control; format: functional

| SMILES | IC50 [3] | IC50 [1] | selectivity ratio [2] | inhibition at 2.5 µM [4] | inhibition at 5 µM [5] |
| --- | --- | --- | --- | --- | --- |
| N=C1NC[C@H](CCCCN2C[C@H](CC3CCCCC3)N(CCCCC3CCCCC3)C2=N)N1CCc1cccc(C(F)(F)F)c1 | 1.3 µM | 26 µM | 14 | 0% | 94% |
| N=C1NC[C@H](CCCCN2C[C@H](CC3CCCCC3)N(CCc3ccc(-c4ccccc4)cc3)C2=N)N1CCc1cccc(C(F)(F)F)c1 | > 5 µM | 46 µM | < 9 | 35% | 97% |
| CCCCCCCN1C(=N)N(CCCC[C@H]2CNC(=N)N2CCCCC2CCCCC2)C[C@@H]1CCCC | 1.3 µM | 16 µM | 12 | 68% | 98% |
| CCCC[C@H]1CN(CCCC[C@H]2CNC(=N)N2CCCCC2CCCCC2)C(=N)N1CCc1ccc(-c2ccccc2)cc1 | 5 µM | 12 µM | 2 | 78% | 98% |
| N=C1NC[C@H](CCCCN2C[C@@H](Cc3ccc4ccccc4c3)N(CCc3ccc(-c4ccccc4)cc3)C2=N)N1CCc1cccc(C(F)(F)F)c1 | 1.3 µM | 50 µM | 39 | 0% | 0% |

Second part, led by results:

| IC50 [3] | SMILES | IC50 [1] | selectivity ratio [2] | inhibition at 2.5 µM [4] | inhibition at 5 µM [5] |
| --- | --- | --- | --- | --- | --- |
| > 5 µM | CCCCCCCN1C(=N)N(CCCC[C@H]2CNC(=N)N2CCc2cccc(C(F)(F)F)c2)C[C@@H]1CC1CCCCC1 | 50 µM | < 10 | 0% | 6% |
| > 5 µM | CCCC[C@H]1CN(CCCC[C@H]2CNC(=N)N2CCCCC2CCCCC2)C(=N)N1CCCCC1CCCCC1 | 15 µM | < 3 | 71% | 99% |
| 1.8 µM | N=C1NC[C@H](CCCCN2C[C@@H](Cc3ccc4ccccc4c3)N(CCCCC3CCCCC3)C2=N)N1CCc1cccc(C(F)(F)F)c1 | 50 µM | 28 | 6% | 75% |
| 1.3 µM | CCCCCCCN1C(=N)N(CCCC[C@H]2CNC(=N)N2CCCCC2CCCCC2)C[C@H]1Cc1ccc2ccccc2c1 | 50 µM | 38 | 6% | 97% |
